Experimental data from US20250170118A1, “PHARMACEUTICAL COMPOSITION FOR PREVENTING OR TREATING WET AGE-RELATED MACULAR DEGENERATION” (UIF (University Industry Foundation), Yonsei University, priority 2023, published 2025).

Tests used:
Assay type in all cases: in vivo, C57BL/6 J mice
[1] = test system: choroidal neovascularization (CNV) mouse model; assay: Laser-induced choroidal neovascularization (CNV) mouse model of wet AMD: size of neovascularization (FFA, Isolectin B4 staining); details: 7 days after laser; for size of neovascularization compared to the PBS control group: NMN/NR 500 mg per kg i.p. daily for 10 days, Aflibercept intravitreal, FFA and Isolectin B4 staining, p<0.001 vs PBS
Procedure: (§1) In this study, 8-week-old (18-20 g) C57BL/6 J adult mice were used. The mice were maintained according to the guidelines for the use of animals in ophthalmic and vision research set forth by the Association for Research in Vision and Ophthalmology (ARVO). All animal experiments were approved by the Institutional Animal Care and Use Committee (IACUC) of Yonsei University College of Medicine (IACUC number: 2022-0279). C57BL/6 J mice were maintained on a 12:12 hour light/dark cycle.
(§2) Mice were anesthetized using a 1:1 mixture of tiletamine and zolazepam (15 mg per kg body weight) along with Xylazine hydrochloride (10 mg per kg body weight). The pupils were dilated using Phenylephrine (0.5%) and tropicamide (0.5%). During the anesthesia and pupil dilation, a heating pad was used to maintain the body temperature at 37° C.
(§3) After confirming pupil dilation, the mice were positioned on the support of the laser device (GYC-1000 Specifications, 532 nm). A drop of 2% Hypromellose solution was placed on the corneal surface, and a glass cover slip was positioned to contact the cornea for visualization of the fundus. Additionally, the height and distance of the support were adjusted to ensure the laser was accurately positioned on the retina.
(§4) The settings for the laser used in the experiment were as follows: output: 150 mW/spot size: 50 μm, time: 50 ms. After positioning the optic nerve in the center, the laser direction was indicated using a clock face, applying a total of 4 laser shocks at the 3 o'clock, 6 o'clock, 9 o'clock, and 12 o'clock positions, once each. The successful performance of the laser shock was confirmed by the generation of bubbles in the retina, with no hemorrhage observed in the retina.
(§5) To compare the choroidal neovascularization (CNV) induced by the laser shock, mice were sacrificed 7 days after the laser shock, and to evaluate the fibrosis induced by the laser shock in the sub-retinal area, mice were sacrificed 4 weeks after the laser shock.
In this study, Nicotinamide mononucleotide (NMN) purchased from ORIENTAL YEAST CO and Nicotinamide riboside (NR) purchased from ChromaDex were used. Starting three days before the creation of the laser-induced mouse model, NMN and NR were administered intraperitoneally daily at a concentration of 500 mg per kg of body weight. […]
After the staining process was completed, the flat-mounted tissue was spread on the slide, a drop of mounting media was applied, and a glass cover was placed over it. Fluorescent images were taken using a fluorescence microscope (Olympus; BX43).
(§6) The size of neovascularization and fibrotic areas was measured using ImageJ software. […] Then, a threshold was applied to measure the size, followed by quantification of pixels. […]

[2] = test system: senescence markers p16INK4a, p21CIP1, γ-H2AX, p53 and SA-β-gal in retinal pigment epithelium/choroid/sclera complex; assay: Senescence phenotype in laser-induced neovascular wet AMD model (SA-β-gal staining, immunofluorescence of senescence markers)
Procedure: as §1, §2, §3, §4
(§7) In this study, Nicotinamide mononucleotide (NMN) purchased from ORIENTAL YEAST CO and Nicotinamide riboside (NR) purchased from ChromaDex were used. Starting three days before the creation of the laser-induced mouse model, NMN and NR were administered intraperitoneally daily at a concentration of 500 mg per kg of body weight.
(§8) Mice were sacrificed using carbon dioxide, and the extracted eyeballs were fixed in 1% paraformaldehyde for 1 hour. After fixation, they were sequentially treated with 10%, 20%, and 30% sucrose solutions for 1 hour each. For sectioning, the eyeballs were positioned so that the connection between the optic nerve and the center of the cornea was horizontally aligned using OCT compound, and rapid freezing was performed using liquid nitrogen vapor. The eyeballs were stored at −70° C.
(§9) The eyeballs were sectioned to a thickness of […], and thereafter, staining procedures were performed using primary and secondary antibodies. After staining, a drop of mounting media was applied to the tissue on the slide, and a cover glass was placed over it.
The primary antibodies used in this study are as follows: Isolectin GS-IB4, Alexa Fluor™ 488 conjugate (121411); Collagen I antibody (ab34710); p16INK4a antibody (ab108349); gamma H2A.X antibody (ab2893); p53 antibody (sc-126); p21CIP1 antibody (sc-6246).
Mouse eyes were enucleated, and the anterior segments were removed to isolate the retinal pigment epithelium/choroid/sclera complex. The complex was rinsed with cold PBS and then fixed at room temperature for 20 minutes using the fixative solution provided in the SA-β-galactosidase (SA-β-GAL) staining kit. Staining was performed using the staining solution mixture provided according to the manufacturer's instructions (BioVision; #K320). After overnight staining at 37° C., the samples were incubated at 55° C. for 45 minutes with 10% H2O2 to remove the pigment. Following rinsing with PBS, the samples were flattened using forceps and a surgical knife. Images were captured using a fluorescent microscope (Olympus; BX43).
SA-β-gal staining analysis, an early method for identifying senescent cells in tissues, was used. Additionally, the expression of senescence markers such as p16INK4a, p21CIP1, γ-H2AX, and p53 is increased in senescent cells. […]

subretinal fibrosis = assay: Subretinal fibrosis in laser-induced neovascular wet macular degeneration model (Collagen type I staining, OCT); details: for expression of Collagen type 1 compared to the PBS negative control group: 500 mg per kg i.p. daily from three days prior, NMN vs PBS p<0.001, NR vs PBS p<0.002; for production of subretinal fibrosis associated with neovascular macular degeneration: FIG. 3 legend
Procedure: as §1, §2, §3, §4, §5, §7, §8, §9
For flat mounting, the muscle, cornea, lens, and neural retina were removed. Then, the retinal pigment epithelium/choroid/sclera complex was radially incised eight times to create a petal-like structure. It was placed in a 1 ml microtube and stained with primary and secondary antibodies. […]
as §6

[3] = seventh day post-laser induction, immunofluorescence staining

Compound	neovascular size compared to the NMN and NR groups ([1]; Aflibercept vs NMN p>0.99, Aflibercept vs NR p>0.99)	size of neovascularization compared to the PBS control group [1]	aging phenotype induced in a neovascular wet AMD model ([2]; FIG. 2 legend)	SA-β-gal staining of the retinal pigment epithelium/choroid/sclera complex compared to the PBS group ([2]; seventh day post-laser induction, NMN 500 mg per kg i.p. daily)	expression of p16INK4a protein compared to PBS [2, 3]	expression of p21CIP1 protein compared to PBS [2, 3]	expression of p53 protein compared to PBS [2, 3]	expression of γ-H2AX protein compared to PBS [2, 3]	fibrosis by OCT and immunofluorescence staining on sections compared to the negative control group (subretinal fibrosis; 28th day post-laser shock, 500 mg per kg i.p. daily)	expression of Collagen type 1 compared to the PBS negative control group (subretinal fibrosis; 28th day post-laser shock)	production of subretinal fibrosis associated with neovascular macular degeneration (subretinal fibrosis)
Aflibercept [reference compound]	no significant difference	significant reduction									
nicotinamide mononucleotide [NMN]		significantly reduced	inhibits	reduced	decreased	decreased	decreased	decreased	reduced	significantly reduced	inhibit
NC(=O)c1ccc[n+]([C@@H]2O[C@H](CO)[C@@H](O)[C@H]2O)c1 [NR, nicotinamide riboside]		significantly reduced								significantly reduced	inhibit
